For one molecule, melting point and efficacy results are on record in patent publication US6437127B1, “Substituted cycloalkenes and their use as microbices, especially as fungicides” (Bayer Aktiengesellschaft, priority 1995, dated 2002).

In series [1] the test system is Pseudocercosporella herpotrichoides. The experiment in a line: Pseudocercosporella herpotrichoides test (wheat)/protective. The series is classed as in vivo. As to conditions: protective, application rate 250 g/ha, evaluation 21 days after inoculation. As to the method: Pseudocercosporella Herpotrichoides Test (Wheat)/Protective Solvent: 10 parts by weight of N-methyl-pyrrolidone Emulsifier: 0.6 parts by weight of alkylaryl polyglycol ether To produce a suitable preparation of active compound, 1 part by weight of active compound is mixed with the stated amounts of solvent and emulsifier, and the concentrate is diluted with water to the desired concentration. To test for protective activity, young plants are sprayed with the preparation of active compound at the stated application rate. After the spray coating has dried on, the stem bases of the plants are inoculated with spores of Pseudocercosporella herpotrichoides. The plants are placed in a greenhouse at a temperature of about 10° C. and a relative atmospheric humidity of about 80%. Evaluation is carried out 21 days after the inoculation.

Series [2] relates to Erysiphe graminis. f. sp. tritici. Put plainly: Erysiphe test (wheat)/curative. The series is classed as in vivo. The settings on record: curative, sprayed 48 hours after inoculation, application rate 250 g/ha, evaluation 7 days after inoculation. How it is done:
Erysiphe Test (Wheat)/Curative Solvent: 10 parts by weight of N-methyl-pyrrolidone Emulsifier: 0.6 parts by weight of alkylaryl polyglycol ether To produce a suitable preparation of active compound, 1 part by weight of active compound is mixed with the stated amounts of solvent and emulsifier, and the concentrate is diluted with water to the desired concentration. To test for curative activity, young plants are dusted with spores of Erysiphe graminis. f. sp. tritici. 48 hours after the inoculation, the plants are sprayed with the preparation of active compound at the stated application rate. The plants are placed in a greenhouse at a temperature of about 20° C. and a relative atmospheric humidity of about 80%, in order to promote the development of mildew […]. Evaluation is carried out 7 days after the inoculation.

Usually melting point stands for the temperature of the solid-liquid transition. Take `CNC(=O)C(=NOC)C1=C(/C=C/c2ccccc2)CCC1` [compound (1)]: the melting point was in the range of 135 to 140 °C. This molecule came in with an efficacy in series [1] of 90%. For the same molecule, the efficacy in series [2] was found to be 75%.
